The text below walks through data of US5942522A, “Antiviral compounds and antihypertensive compounds” (Schering Corporation, priority 1997, dated 1999).

For one data set, the system named is HSV-2, strain MS. Kind of data set: Prophylactic guinea pig model of HSV infection. The class given is in vivo. Particulars: 60 mg/kg s.c. (test compounds) T.I.D., 10 days, first dose 24 h before infection; for MSL (Maximum Lesion score): scale of 1-4. The method, then: The in vivo assessment of anti-HSV efficacy was determined in the prophylactic guinea pig model of HSV infection described by Stansberry et al (1982). Dosing of guinea pigs comprised an initial treatment with test compound given 24 hours prior to virus infection and subsequent administration of the compound every eight hours (T.I.D.) for a total of 10 days. Test compounds were administered subcutaneously in 0.5% buffered methyl celluslose at a dose of 60 mg per kg body weight of the animal. Animals were monitored daily for the development of genital lesions and neurological symptomology, both of which were recorded and compared to the results obtained with parallel groups which received placebo or acyclovir treatment. Efficacy was evaluated for each compound by scoring the ability of the compound to ameliorate genital lesions produced by infection with HSV-2, strain MS, expressed as Maximum Lesion Scores (MLS) on a scale of 1 (least lesions) to 4 (severe lesions).

The target of data set [1] is T1, cGMP phosphodiesterase (cGMP-PDE) (Bos taurus, UniProt Q28156).
T1 construct: is a homogeneous enzyme obtained from bovine lung; from tissue; host or cells: bovine lung
The data set can be described thus: Inhibition of cGMP phosphodiesterase in vitro. The settings on record: 1 μM 3H-cGMP, pH 7.5, 25 min, room temperature. Type of data set: biochemical, bovine.

In a further data set the test system is HSV-2 (strain MS). Kind of data set: HSV-β-Gal assay: transient expression of beta galactosidase in transfected HeLa cells superinfected with HSV-2. The class given is cell-based. Particulars: 24 h. The protocol:
(§1) HeLa and Vero cell cultures were maintained in Eagles Minimal Essential Medium (EMEM) which was supplemented with glutamine, penicillin, streptomycin and 10% fetal calf serum (10% EMEM). Stock cultures of HSV-2 (strain MS available from ATCC VR-540) were grown in and harvested from Vero cells. Viral stocks were titered in Vero cells according to established procedures.
Plasmid pON 245^ori- contains the promoter of the HSV-1 thymidine kinase (tk) gene located immediately 5'of the E. coli lac Z gene. In this arrangement, the tk promoter controls transcription from the bacterial gene in transient expression assays. Additionally, an SV40 polyadenylation signal is present at the 3' end of the lac Z gene to allow for the efficient translation of the mRNA in eucaryotic cells. The expression of beta galactosidase in a transient assay using pON 245^ori- is dependent upon superinfection of the transfected cells with HSV. […] For example see U.S. application Ser. No. 07/435,491 filed Sep. 5, 1989, the disclosure of which is incorporated herein by reference thereto.
HeLa cells were seeded into 96 well microtiter plates and allowed to grow to 80% confluency (approximately 35000 cells/well). One half microgram of plasmid pON 245^ori- DNA was introduced into the cells of each well by the […] precipitation technique (Grahman and Van der Eb, 1973). Four to six hours later, the cells were rinsed with hank's Balanced Salt Solution (HBSS), overlaid with 10% EMEM and incubated at 37° C. At 24 hours post-transfection, cells were rinsed, overlaid with 10% EMEM again and re-incubated at 37° C. At 48 hours post-transfection, cells were rinsed and overlaid with either EMEM containing 2% fetal calf serum (2% EMEM), 2% EMEM containing HSV-2 (strain MS, Multiplicity of Infection [moi]=5 pfu/cell) or 2% EMEM containing HSV-2 and the appropriate concentration of Schering compound to be tested. Twenty-four hours later, the cells were harvested and assayed for beta galactosidase activity as described below.
All determinations of beta galactosidase activity were performed in 96 well microtiter plates. The intracellular level of beta galactosidase activity in each well was determined from cell lysates of the monolayer cultures. Aliquots were assayed by incubation in the presence of beta galactosidase substrate, 4-methylumbelliferyl-β-D-galactoside (MUG, 125 ug/ml, Sigma), for 2 hours. The generation of fluorescent product was quantified on a Microfluor microfluorimeter (Dynatech) after addition of 0.1M glycine, pH 10.3 (Spaete and Mocarski, 1985). The inhibitory activity of a compound was plotted versus the concentration and an IC50 value (the concentration of compound required to reduce beta glactosidase expression by 50%) was obtained for each compound tested.

A short description of data set [2]: Blood pressure in conscious spontaneously hypertensive rats (SHR). The class given is in vivo. The protocol:
The ability of the compounds to lower blood pressure can be assessed in vivo in conscious spontaneously hypertensive rats (SHR). SHR are purchased from Taconic Farms, Germantown, N.Y. and are approximately 16-18 weeks old when anesthetized with ether. The caudal ventral tail) artery is cannulated with polyethylene tubing (PE50) and blood pressure and heart rate are recorded as described by Baum, T. et. al, J. Cardiovasc. Pharmacol. Vol 5, pp. 665-667, (1983). Rats are placed into pastic cylindrical cages where they rapidly recover consciousness. Blood pressure and heart rate are allowed to stabilize for approximately 90 minutes prior to compound administration. Compounds are administered orally as solutions or suspensions in 0.4% aqueous methylcellulose vehicle via a feeding needle. The compound or 0.4% aqueous methylcellulose vehicle are given in a volume of 4 ml/kg to SHRs that had been fasted overnight. Alternatively,compounds are administered intravenously. The compound is solubilized with a minimum amount of an organic solvent such as ethanol or dimethylsulfoxide and given in physiological saline. Activity is expressed as the fall in mean blood pressure (MBP) in millimeters of mercury (mm Hg). Compound-induced changes are compared with the changes in an appropriate placebo group.

A short description of data set [3]: Compound toxicity assay: inhibition of HeLa cell translation (3H-leucine incorporation). Type of data set: cell-based. Particulars: human; Table II; HeLa cells; read-out: Cytotoxicity 3H-LEU assay IC50. The protocol: as §1
HeLa cells were treated with inhibitory compound for 24 hours, after which levels of translational activity were assayed.
For assay of translational activity, HeLa cultures were grown to 80% confluency in 96 well microtiter plates, treated with appropriate concentrations of compound in 2% EMEM during an overnight incubation at 37° C., then rinsed with HBSS and overlaid with […] of 2% EMEM containing 8 uCi of tritiated leucine (^3 H-LEU, […], Amersham Corp., Arlington Heights, Ill.). After a 1 hour incubation at 36.5°C., the cells were rinsed twice with phosphate buffered saline (PBS) and lysed in 400 ul/well of 1×PBS, 0.5% sodium dodecyl sulphate (SDS). After a 10 min incubation at 36.5° C., the contents of the well were transferred to a well in a Millititer HA microfiltration plate (Millipore Corp., Bedford, Mass.). The TCA insoluble proteins were precipitated onto the filter disc by a 10 min fixation with 5% TCA, followed by filtration under vacuum and three 10 minute rinses with 95% ethanol. The filters were dried at room temperature, cut from the milltitier plate and transferred to scintillation vials. TCA precipitable counts were assayed in 5 ml of Scintisol (Isolab, Akron, Ohio). The inhibitory activity of a compound was plotted versus the concentration and an IC50 value (that concentration of the compound required to decrease cellular translational activity by 50%) was derived for each compound.

For another data set, the system named is HSV-1. The settings on record: cited from earlier work.
A further data set deals with HSV-2. The settings on record: cited from earlier work.
A further data set deals with HeLa cells. Kind of data set: Compound toxicity assay: inhibition of HeLa cell translation (3H-leucine incorporation). The class given is cell-based. The settings on record: Homo sapiens, Table II^1, read-out: Cytoxicity 3H-LEU assay IC50.
The test system of the next data set is herpes virus. Particulars: added to lidocaine or lidocaine hydrochloride; cited from earlier work.
The mark [4] stands for this setting: Human alphaherpesvirus 2, Table II, HeLa cells, HSV-2 strain MS, read-out: Anti-HSV activity, HSV-β-GAL assay IC50.
Setting [5] is: Human alphaherpesvirus 2, Table II^1, HeLa cells, HSV-2 strain MS, read-out: Anti-HSV activity HSV-β-Gal assay IC50.

Converted amounts (≈) assume the structure as drawn. Where two headings read alike, the source gives them in different places. A value given as a limit tells only on which side of the number the result lay.

Regarding `Nc1nc2c(ncn2COCCO)c(=O)[nH]1` [Acyclovir, 9-[(2-hydroxyethoxy)methyl]guanine, reference compound], in the data set on HSV-2, strain MS, the “Neurological dysfunction (percentage animals developing loss of bladder/hindlimb control)” value came out at 44% and the “MSL (Maximum Lesion score)” value turned out to be 1.61.

As a reminder, the IC50 is the concentration needed to halve the response being measured. In the case of `CCOC(=O)c1c(OC)c2cc(C)ccc2n(Cc2ccccc2)c1=O` [Compound 7, 1-benzyl-3-ethoxycarbonyl-4-methoxy-6-methyl-2(1H)-quinolinone], the IC50 in [1] (Table VII) was determined as 8 µM; in the data set with HSV-2 (strain MS) (Human alphaherpesvirus 2, HeLa, read-out: Anti-HSV activity, HSV-β-GAL assay IC50) it was 3 µg/mL (≈ 8.54 µM). Further, the “MBP (fall in mean blood pressure)” value in data set [2] (Table VII, at 25 mpk (P.O.)) came out at 0 mm Hg. Also, in data set [3], the CC50 at 24 h was 37 µg/mL (≈ 105 µM).

As to `CCCCCCn1c(=O)c(CO)c(OC)c2cc(C)ccc21` [Compound 9, 1-Hexyl-3-Hydroxymethyl-4-Methoxy-6-Methyl-2(1H)-Quinolinone], the “Neurological dysfunction (percentage animals developing loss of bladder/hindlimb control)” value with HSV-2, strain MS is listed as 44%. Also, in the data set with HSV-2, strain MS, the “MSL (Maximum Lesion score)” value is given as 1.44. The IC50 in data set [1] (Table VI) is 6 µM; in the data set with HSV-2 (strain MS) (setting [4]), under 3 µg/mL. Besides, the CC50 at 24 h in data set [3] stood at 25 µg/mL (≈ 82.4 µM).

Turning to `CCN(CC)CC(=O)Nc1c(C)cccc1C` [lidocaine, 2-(diethylamino)-N-(2,6-dimethylphenyl)acetamide], the “antiviral activity in cell culture” value in the data set with HSV-1 and in the data set on HSV-2 was “antiviral agent” throughout.

`CCCCCCn1c(=O)c(C(=O)OCC)c(OC)c2cc(C)ccc21` [Compound 28, 1-hexyl-3-ethoxycarbonyl-4-methoxy-6-methyl-2(1H)-quinolinone] gave an IC50 in data set [1] (Table VI) of 3 µM.

As to `CCOC(=O)c1c(OCCN(C)C)c2cc(C)ccc2n(Cc2ccccc2)c1=O` [Compound 27], the IC50 in [1] (Table VI) worked out at 4 µM. The “MBP (fall in mean blood pressure)” value in data set [2] (25 mpk p.o.) is given as 19 mm of Hg; in [2] (50 mpk p.o.), 24 mm of Hg; in data set [2] (100 mpk p.o.) it was 59 mm of Hg.

For the molecule `Cc1c(OC(=O)c2ccc[nH]2)ccc2c(N)cc(=O)oc12` [Compound 70, 4-Amino-7-(Pyrrol-2-carbonyloxy)-8-Methyl-Benzopyran-2-one], the figures for the IC50 in the data set on HSV-2 (strain MS) (setting [5]) and in the data set with HeLa cells were 15.5 µg/mL (≈ 54.5 µM) and 74 µg/mL (≈ 260 µM), respectively.

Take `CC(C)(CO)[C@@H](O)C(=O)NCCCO` [dexpanthenol]: the “enhancement of antiviral activity of lidocaine or lidocaine hydrochloride” value in the data set with herpes virus is “significantly enhances”.

With `CC(C)(CO)[C@@H](O)C(=O)NCCC(=O)O` [pantothenic acid], in the data set with herpes virus, the “enhancement of antiviral activity of lidocaine or lidocaine hydrochloride” value was “significantly enhances”.

As for `Cc1c(OC(=O)c2cccn2C)ccc2c(N)cc(=O)oc12` [Compound 69, 4-Amino-7-(N-Methyl-Pyrrol-2-Carbonyloxy)-8-Methyl-Benzopyran-2-one], the IC50 was 9.8 µg/mL (≈ 32.9 µM) in the data set with HSV-2 (strain MS) (setting [5]) and 100 µg/mL (≈ 335 µM) in the data set with HeLa cells.

In the case of `COc1c(Sc2ccccc2)c(=O)n(C)c2ccc(F)cc12` [Compound 22], the IC50 in the data set on HSV-2 (strain MS) (setting [4]) was 8 µg/mL (≈ 25.4 µM). For the same molecule, the CC50 at 24 h in [3] came out at 25 µg/mL (≈ 79.3 µM).
